Values of other authors as cited in patent US20090275622A1, “NIZATIDINE FORMULATIONS” (priority 2008, published 2009).

Conditions: crystalline solid

SMILES: CN/C(=C\[N+](=O)[O-])NCCSCc1csc(CN(C)C)n1 [Nizatidine, N-[2-[[[2-[(dimethylamino)methyl]-4-thiazolyl]methyl]thio]ethyl]-N′-methyl-2-nitro-1,1-ethenediamine]
- Solubility in water: soluble in water
